Laboratory results taken from US7205382B2, “Peptides, the production and use thereof for binding immunoglobulins” (Fresenius Medical Care Affina GmbH, priority 2000, dated 2007).
Bridge positions count the residues as written; N and C are the ends. Square brackets hold non-standard residues; d marks the D form. Ends that are not written are not given here. cellulose = not defined here; βAla = NCCC(=O)O

Assays:
Type in all cases: binding
Design in all cases: key: No binding of immunoglobulin for the defined peptide variant, detection negative: 0; Binding of immunoglobulin for the defined peptide variant, detection positive: +
serum albumin = experiment: Cellulose-immobilized 13-mer peptide variants incubated with serum albumin (negative control), anti-human IgG-AP detection; details: blocking buffer without addition, 3 h room temperature
Outline: (§1)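 Read-out was colorimetric NBT/BCIP staining (developing buffer pH 9.5) after alkaline phosphatase-conjugated anti-human IgG at 1.2 μg/ml. Before this, the immobilized peptides had been incubated 3 h at room temperature with 1 μg/ml IgG-Fc, 1:10,000 diluted serum, or albumin-containing blocking buffer without addition.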

[1] = tested on: immunoglobulins in human plasma; experiment: Cellulose-immobilized 13-mer peptide variants incubated with human plasma, anti-human IgG-AP detection; details: human plasma as sample, diluted 1:10,000 in blocking buffer, 3 h room temperature
Outline: as §1

human IgG-Fc = experiment: Cellulose-immobilized 13-mer peptide variants incubated with human IgG-Fc, anti-human IgG-AP detection; details: IgG-Fc 1 μg/ml in blocking buffer, 3 h room temperature
Outline: as §1

| Substance | Result for incubation with serum albumin (immunoglobulin binding detection) (serum albumin) | Result for incubation with human plasma (immunoglobulin binding detection) [1] | Result for incubation with human IgG-Fc (immunoglobulin binding detection) (human IgG-Fc) |
| --- | --- | --- | --- |
| 05A: cellulose-bound 13-mer variant DCAWALGELVWCT-(βA)(βA) (disulfide 2-12 (inferred); not fully specified (N-terminus, C-terminus); printed as DCAWALGELVWCT-(βA)(βA); also: cellulose-bound) | 0 | 0 | 0 |
| 08Q: cellulose-bound 13-mer variant DCAWHLGQLVWCT-(βA)(βA) (DCAWHLGQLVWCT-{βAla-βAla-cellulose}; disulfide 2-12 (inferred); reading uncertain; also: printed as DCAWHLGQLVWCT-(βA)(βA)) | 0 | + | + |
| 07A: cellulose-bound 13-mer variant DCAWHLAELVWCT-(βA)(βA) (DCAWHLAELVWCT-{βAla-βAla-cellulose}; disulfide 2-12 (inferred); not fully specified (N-terminus); printed as DCAWHLAELVWCT-(βA)(βA); reading uncertain) | 0 | 0 | 0 |
| 01M: cellulose-bound 13-mer variant MCAWHLGELVWCT-(βA)(βA) (MCAWHLGELVWCT-{βAla-βAla-cellulose}; disulfide 2-12 (inferred); reading uncertain; also: printed as MCAWHLGELVWCT-(βA)(βA)) | 0 | 0 | + |
| 10N: cellulose-bound 13-mer variant DCAWHLGELNWCT-(βA)(βA) (DCAWHLGELNWCT-{βAla-βAla-cellulose}; disulfide 2-12 (inferred); reading uncertain; also: printed as DCAWHLGELNWCT-(βA)(βA)) | 0 | 0 | 0 |
| 04Q: cellulose-bound 13-mer variant DCAQHLGELVWCT-(βA)(βA) (disulfide 2-12 (inferred); not fully specified (N-terminus, C-terminus); printed as DCAQHLGELVWCT-(βA)(βA); also: cellulose-bound) | 0 | 0 | + |
| 04M: cellulose-bound 13-mer variant DCAMHLGELVWCT-(βA)(βA) (DCAMHLGELVWCT[βAla][βAla]; disulfide 2-12 (inferred); also: cellulose-bound) | 0 | + | + |
| 10F: cellulose-bound 13-mer variant DCAWHLGELFWCT-(βA)(βA) (DCAWHLGELFWCT-{βAla-βAla-cellulose}; disulfide 2-12 (inferred); reading uncertain; also: printed as DCAWHLGELFWCT-(βA)(βA)) | 0 | 0 | 0 |
| 10E: cellulose-bound 13-mer variant DCAWHLGELEWCT-(βA)(βA) (DCAWHLGELEWCT-{βAla-βAla-cellulose}; disulfide 2-12 (inferred); reading uncertain; also: printed as DCAWHLGELEWCT-(βA)(βA)) | 0 | 0 | 0 |
| 07P: cellulose-bound 13-mer variant DCAWHLPELVWCT-(βA)(βA) (DCAWHLPELVWCT-{βAla-βAla-cellulose}; disulfide 2-12 (inferred); not fully specified (N-terminus); printed as DCAWHLPELVWCT-(βA)(βA); reading uncertain) | 0 | 0 | 0 |
| 11A: cellulose-bound 13-mer variant DCAWHLGELVACT-(βA)(βA) (DCAWHLGELVACT-{βAla-βAla-cellulose}; disulfide 2-12 (inferred); reading uncertain; also: printed as DCAWHLGELVACT-(βA)(βA)) | 0 | 0 | 0 |
| 04D: cellulose-bound 13-mer variant DCADHLGELVWCT-(βA)(βA) (DCADHLGELVWCT-{βAla-βAla-cellulose}; disulfide 2-12 (inferred); reading uncertain; also: printed as DCADHLGELVWCT-(βA)(βA)) | 0 | 0 | 0 |
| 03H: cellulose-bound 13-mer variant DCHWHLGELVWCT-(βA)(βA) (DCHWHLGELVWCT-{βAla-βAla-cellulose}; disulfide 2-12 (inferred); reading uncertain; also: printed as DCHWHLGELVWCT-(βA)(βA)) | 0 | 0 | 0 |
| 02K: cellulose-bound 13-mer variant DKAWHLGELVWCT-(βA)(βA) (DKAWHLGELVWCT[βAla][βAla]; not fully specified; printed as DKAWHLGELVWCT-(βA)(βA); also: cellulose-bound) | 0 | 0 | 0 |
| 02H: cellulose-bound 13-mer variant DHAWHLGELVWCT-(βA)(βA) (DHAWHLGELVWCT[βAla][βAla]; not fully specified; printed as DHAWHLGELVWCT-(βA)(βA); also: cellulose-bound) | 0 | 0 | 0 |
| 06F: cellulose-bound 13-mer variant DCAWHFGELVWCT-(βA)(βA) (DCAWHFGELVWCT[βAla][βAla]; disulfide 2-12 (inferred); not fully specified (N-terminus); printed as DCAWHFGELVWCT-(βA)(βA); also: cellulose-bound) | 0 | 0 | 0 |
| 11F: cellulose-bound 13-mer variant DCAWHLGELVFCT-(βA)(βA) (DCAWHLGELVFCT-{βAla-βAla-cellulose}; disulfide 2-12 (inferred); reading uncertain; also: printed as DCAWHLGELVFCT-(βA)(βA)) | 0 | 0 | 0 |
| 11R: cellulose-bound 13-mer variant DCAWHLGELVRCT-(βA)(βA) | 0 | 0 | 0 |
| 09A: cellulose-bound 13-mer variant DCAWHLGEAVWCT-(βA)(βA) (DCAWHLGEAVWCT-{βAla-βAla-cellulose}; disulfide 2-12 (inferred); reading uncertain; also: printed as DCAWHLGEAVWCT-(βA)(βA)) | 0 | 0 | 0 |
| 12E: cellulose-bound 13-mer variant DCAWHLGELVWET-(βA)(βA) (DCAWHLGELVWET-{βAla-βAla-cellulose}; not fully specified; printed as DCAWHLGELVWET-(βA)(βA); reading uncertain) | 0 | 0 | 0 |
| 12I: cellulose-bound 13-mer variant DCAWHLGELVWIT-(βA)(βA) (DCAWHLGELVWIT-{βAla-βAla-cellulose}; not fully specified; printed as DCAWHLGELVWIT-(βA)(βA); reading uncertain) | 0 | 0 | 0 |
| 05S: cellulose-bound 13-mer variant DCAWSLGELVWCT-(βA)(βA) (disulfide 2-12 (inferred); not fully specified (N-terminus, C-terminus); printed as DCAWSLGELVWCT-(βA)(βA); also: cellulose-bound) | 0 | 0 | 0 |
